From article PMC10072326, “Promising anticancer agents based on 8-hydroxyquinoline hydrazone copper(II) complexes” (Frontiers in Chemistry, 2023)

Key:
A-375 cells = test: Sulforhodamine B (SRB) cell viability assay; format: cell-based; conditions: 72 h
Protocol: (§1) Copper compounds were tested, along with the free ligands and cisplatin as the positive control, for their cytotoxicity on both melanoma (A-375) and lung adenocarcinoma (A-549) cell lines in the concentration range 0.78–50 μM. Following 72 h of incubation, cell viability was measured via sulforhodamine B (SRB) assay (Supplementary Figure S25).
(§2) A-375 cells (ATCC, CRL-3222) were grown in Dulbecco’s Modified Eagle Medium with high glucose (Gibco #11965118) and A-549 (ATCC, CCL-185) cells were grown in Dulbecco’s Modified Eagle Medium F-12 (Gibco #11320033), supplemented with 10% FBS (Gibco, #10500064) and Penicillin-Streptomycin (10,000 U/mL, Gibco, #15140122). Cells were incubated at 37 °C, 5% CO2 incubator and subcultured every 3 days.
(§3) All the tested complexes were dissolved in DMSO (10 mM stock solution), and aliquots were stored at -20 °C, thawed on the experiment day and used only once. For SRB cell viability assay, A-375 and A-549 cells were seeded on 96-well plates (4×10^3 cells/well) and treated with serial dilutions of indicated compounds (with a concentration range of 0-50 μM, 72 h). Trichloroacetic acid (TCA) was added to wells for fixation at a final concentration of 10%, for 1 h at 4 °C. Each well was washed five times with ddH2O, dried, and incubated with 0.4% (w/v) SRB dye (50 µL/well) for 30 min at room temperature. The wells were washed with 1% acetic acid (v/v) five times, and 150 µL of 10 mM Tris solution was added to dissolve the stain. Colorimetric measurements were taken at λ = 564 nm. Viability percentage was calculated as follows: % Cell Viability = [100 × (sample Abs.-blank) / (non-treated control Abs.-blank)].

A-549 cells = test: Sulforhodamine B (SRB) cell viability assay; format: cell-based; conditions: 72 h
Protocol: as §1, §2, §3

[1] = biological target: bovine serum albumin (BSA) (Bos taurus, UniProt P02769); test: BSA fluorescence quenching; format: binding; parameters: Affinity constant K ± SD: unit not given here; conditions: fluorescence quenching; HypSpec2014; 1:1 species assumed
bovine serum albumin (BSA), sequence (P02769 25-607): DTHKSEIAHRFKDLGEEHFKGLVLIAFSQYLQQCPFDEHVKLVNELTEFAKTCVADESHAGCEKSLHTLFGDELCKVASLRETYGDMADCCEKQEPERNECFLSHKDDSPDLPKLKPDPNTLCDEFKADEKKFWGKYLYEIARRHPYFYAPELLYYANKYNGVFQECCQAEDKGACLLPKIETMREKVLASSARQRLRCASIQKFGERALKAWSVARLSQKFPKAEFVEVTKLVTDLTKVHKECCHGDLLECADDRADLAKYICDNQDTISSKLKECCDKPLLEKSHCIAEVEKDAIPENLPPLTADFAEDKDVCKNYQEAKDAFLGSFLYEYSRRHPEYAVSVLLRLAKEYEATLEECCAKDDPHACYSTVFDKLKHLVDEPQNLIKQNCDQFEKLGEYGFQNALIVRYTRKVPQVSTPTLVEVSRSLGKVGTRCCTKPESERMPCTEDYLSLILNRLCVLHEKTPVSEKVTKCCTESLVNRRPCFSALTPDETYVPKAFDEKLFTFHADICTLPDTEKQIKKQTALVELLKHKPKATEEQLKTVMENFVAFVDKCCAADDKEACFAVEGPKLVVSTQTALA
Protocol: To evaluate the interaction of the compounds, both organic and Cu(II) complexes, with bovine serum albumin (BSA) fluorescence spectra were measured. In a typical fluorescence experiment, to a solution of 1.5 μM of BSA in the same buffer, successive aliquots of a stock solution of each compound in DMSO were added directly to the cuvette (optical path 1.0 cm). The fluorescence emission was recorded between 310 and 600 nm with excitation at 295 nm. The final DMSO % was kept below 2% (v/v). The Stern-Volmer plots were built using the emission at 340 nm and blank samples (in the absence of BSA) with the same concentration of the complexes were recorded and subsequently subtracted from the corresponding emission spectra containing the fluorophore. Moreover, the fluorescence emission intensity was corrected for reabsorption and inner filter effects using UV-Vis absorption data recorded for each sample, since all complexes absorb in the measured wavelength range (19, 20).
The interaction of the organic compounds and Cu(II) complexes with BSA was monitored by studying the quenching of albumin’s fluorescence emission with increasing concentrations of the complexes (25). Overall, the intensity of the Trp emission decreases with the addition of the complexes, except for 8 (see Figs. S19). The Stern-Volmer relationship was used to analyse the fluorescence quenching process:
where I0 and I are the fluorescence intensities in the absence and in the presence of quencher, kq is the bimolecular quenching rate, τ0 is the fluorophore lifetime in the absence of the quencher (6.22 ns) (26) and [Q] is the quencher concentration. […] This linear relationship is obeyed for all complexes except 5, where a downward curvature is observed. This can be an indication of two distinct binding sites, corresponding to two populations of fluorophores, one being accessible and other inaccessible or buried inside the protein. In such cases, the Stern-Volmer relation can be modified to (27):
where ΔI = I0 – I, Ka is the Stern-Volmer constant for the accessible fraction and fa is the fraction of accessible fluorophore. […] As first approximation, the total concentration of quencher was used to check the quenching mechanism. […] As all systems presented high absorbance values in the measured range of wavelengths, no excess of quencher was used and, therefore, 1:1 species will be assumed for these interactions.

[2] = Thermodynamic solubility at pH 7.4; format: physicochemical; conditions: Cu(II) complexes; pH 7.40; 20 mM HEPES; 25.0°C
Protocol: Thermodynamic solubility (S) was measured for the new ligands, L^7 and L^8, since data for the rest of the series was previously reported (9), and for selected Cu(II) complexes: 1, 5 and 6. Solubility was measured for the saturated solutions in water at pH 7.40 in 20 mM HEPES at 25.0 ± 0.1 °C. The concentration was determined by UV-Vis spectrophotometry using the stock solutions of the compounds with known concentrations dissolved in 100% DMSO, 50% and 25% (v/v) DMSO/buffered aqueous solutions for the calibration.

S. aureus ATCC 25928 = test: MIC determination; format: cell-based, Staphylococcus aureus; conditions: S. aureus ATCC 25928 (sensitive); 18 h
Protocol: (§4) Wild-type Escherichia coli K-12 AG100 strain [argE3 thi-1 rpsL xyl mtl Δ(gal-uvrB) supE44] expressing the AcrAB TolC efflux pump at its basal level and Klebsiella pneumoniae ATCC 49619 Gram-negative strains were studied in the experiments. Sensitive (ATCC 25928) and the methicillin-resistant (MRSA 272123) subspecies of Staphylococcus aureus were used as Gram-positive strains in the assays.
(§5) Minimum inhibitory concentration (MIC) values of selected compounds were determined in 96-well plates based on the Clinical and Laboratory Standard Institute guidelines (CLSI guidelines). The stock solutions of the compounds were dissolved in DMSO using 1.3 μL of Mueller Hinton Broth, and then two-fold serial dilutions were performed. The starting concentration of the compounds was 100 μM. Then 10^‒4 dilution of an overnight bacterial culture in 100 μL of medium was added to each well, except for the medium control wells.

S. aureus MRSA 272123 = test: MIC determination; format: cell-based, Staphylococcus aureus; conditions: 18 h
Protocol: as §4, §5

[3] = Cu(II) complex formation and stability constants by UV-Vis spectrophotometric titrations; format: physicochemical; conditions: physiological pH; 1 μM concentration
Protocol: The complex formation processes of L^1, L^5 and L^6 with Cu(II) ions were studied by UV-Vis spectrophotometry in 30% (v/v) DMSO/H2O using relatively low concentrations (c L = 50–60 μM), due to the limited water solubility of the ligand precursors as well as of the Cu(II) complexes (see thermodynamic solubility data in aqueous media in Table 2 and Table 3). L^1 was selected as the simplest compound of the studied ligand series, whereas L^5 and L^6 were selected to compare with the oxidovanadium(IV) system ([Ribeiro et al., 2022]). The solution stability and stoichiometry of the Cu(II) complexes were determined by the evaluation of the UV-Vis spectra recorded at various pH values (representative spectra are shown for the Cu(II) ‒ L^1 and Cu(II) ‒ L^6 systems in Figures 3A,B and for Cu(II) ‒ L^5 in Supplementary Figure S10A). The computed overall stability constants and pK a values of the complexes are collected in Table 3. The formation of only mono-ligand complexes was found with [Cu(LH)]^+, [Cu(L)], and [Cu(LH‒1)]^‒ (and [Cu(LH‒2)]^2‒ in the case of L^6) compositions, and their computed molar absorbance spectra are shown in Figures 3C, D, Supplementary Figure S10B.
An Agilent Cary 8454 diode array spectrophotometer was used to record the UV-Vis spectra in the range of 200–800 nm. Titrations were carried out with a Metrohm 665 Dosimat burette and an Orion 710A pH-meter equipped with a Metrohm combined electrode. A ionic strength of 0.10 M (KCl) was used to keep the activity coefficients constant. The titrations were performed with 0.10 M carbonate-free KOH solution in a 30% (v/v) DMSO/H2O solvent mixture. […] The average water ionization constant (pKw) is 14.53 ± 0.05 in the 30% (v/v) DMSO/H2O solvent mixture. The pKa values of the ligand precursors and the logβ values for the Cu(II) complexes were determined in 30% (v/v) DMSO/H2O in the same way as it was done in our previous publications (9, 11).
Spectrophotometric titrations were carried out on samples containing the ligands at 50 μM concentration, in the pH range from 2.0 to 11.5 in the absence or the presence of 1, 0.5 or 0.25 equiv. Cu(II) ions, using 10 cm^3 sample volumes. Proton dissociation constants (pKa) of the ligand precursors as well as stoichiometry and stability constants of the Cu(II) complexes (β) were calculated by the computer program PSEQUAD (12). The usual definition of overall (β) and stepwise (K) formation constants is used: […]

[4] = tested on: Escherichia coli K-12 AG100; test: MIC determination; format: cell-based; conditions: E. coli; 18 h
Protocol: as §4, §5

[5] = tested on: Klebsiella pneumoniae ATCC 49619; test: MIC determination; format: cell-based; conditions: K. pneumoniae; 18 h
Protocol: as §4, §5

| SMILES | IC50 (A-375 cells) | IC50 (A-549 cells) | Affinity constant K ± SD [1] | thermodynamic solubility S 7.4 [2] | MIC (S. aureus ATCC 25928) | MIC (S. aureus MRSA 272123) | level of dissociation of the complex [3] | MIC [4] | MIC [5] |
| --- | --- | --- | --- | --- | --- | --- | --- | --- | --- |
| O=C([N-]N=Cc1ccc2cccc([O-])c2n1)c1ccc(Cl)cc1.O=C([N-]N=Cc1ccc2cccc([O-])c2n1)c1ccc(Cl)cc1.O=C([N-]N=Cc1ccc2cccc([O-])c2n1)c1ccc(Cl)cc1.[Cu+2].[Cu+2].[Cu+2] [Complex 2, [Cu(L^2)]3] | 6.5 ± 0.8 µM | 9.3 ± 0.4 µM | (8.3 ± 0.1) × 10^4 | < 1 µM |  |  |  |  |  |
| CC(=O)[O-].Cc1ccc(C(=O)NN=Cc2ccc3cccc([O-])c3n2)cc1.[Cu+2] [Complex 4, [Cu(HL^4)(AcO)]] | 2 ± 1.3 µM | 3.9 ± 0.6 µM | (3.2 ± 1.0) × 10^6 | 4.0 ± 0.2 µM |  |  |  |  |  |
| O=C([N-]N=Cc1ccc2cccc([O-])c2n1)c1ccc(O)cc1.O=C([N-]N=Cc1ccc2cccc([O-])c2n1)c1ccc(O)cc1.O=C([N-]N=Cc1ccc2cccc([O-])c2n1)c1ccc(O)cc1.[Cu+2].[Cu+2].[Cu+2] [Complex 6, [Cu(L^6)]3] | 13.6 ± 0.9 µM | 16 ± 0.3 µM | (2.7 ± 0.8) × 10^5 |  | > 100 µM | > 100 µM | ca. 5% | > 100 µM | > 100 µM |
| [Cl][Cu][Cl] [CuCl2, reference compound] |  |  |  |  | > 100 µM | > 100 µM |  | > 100 µM | > 100 µM |
| N.N.[Cl][Pt][Cl] [cisplatin, reference compound] | 11.2 ± 0.3 µM | 16.5 ± 3.4 µM |  |  |  |  |  |  |  |
